Experimental data: ChEMBL document CHEMBL1201862, “PubChem BioAssay data set” (2004)
The source made the active and inactive calls.

Assays:
[1] = biological target: T1, Lysine-specific demethylase 4C (Homo sapiens, UniProt Q9H3R0); assay: GASC-1 (JMJD2C) histone demethylase inhibitors, dose response, biochemical, DELFIA europium, cherry-picked samples (AID 488835); type: functional
T1 sequence (Q9H3R0 whole entry): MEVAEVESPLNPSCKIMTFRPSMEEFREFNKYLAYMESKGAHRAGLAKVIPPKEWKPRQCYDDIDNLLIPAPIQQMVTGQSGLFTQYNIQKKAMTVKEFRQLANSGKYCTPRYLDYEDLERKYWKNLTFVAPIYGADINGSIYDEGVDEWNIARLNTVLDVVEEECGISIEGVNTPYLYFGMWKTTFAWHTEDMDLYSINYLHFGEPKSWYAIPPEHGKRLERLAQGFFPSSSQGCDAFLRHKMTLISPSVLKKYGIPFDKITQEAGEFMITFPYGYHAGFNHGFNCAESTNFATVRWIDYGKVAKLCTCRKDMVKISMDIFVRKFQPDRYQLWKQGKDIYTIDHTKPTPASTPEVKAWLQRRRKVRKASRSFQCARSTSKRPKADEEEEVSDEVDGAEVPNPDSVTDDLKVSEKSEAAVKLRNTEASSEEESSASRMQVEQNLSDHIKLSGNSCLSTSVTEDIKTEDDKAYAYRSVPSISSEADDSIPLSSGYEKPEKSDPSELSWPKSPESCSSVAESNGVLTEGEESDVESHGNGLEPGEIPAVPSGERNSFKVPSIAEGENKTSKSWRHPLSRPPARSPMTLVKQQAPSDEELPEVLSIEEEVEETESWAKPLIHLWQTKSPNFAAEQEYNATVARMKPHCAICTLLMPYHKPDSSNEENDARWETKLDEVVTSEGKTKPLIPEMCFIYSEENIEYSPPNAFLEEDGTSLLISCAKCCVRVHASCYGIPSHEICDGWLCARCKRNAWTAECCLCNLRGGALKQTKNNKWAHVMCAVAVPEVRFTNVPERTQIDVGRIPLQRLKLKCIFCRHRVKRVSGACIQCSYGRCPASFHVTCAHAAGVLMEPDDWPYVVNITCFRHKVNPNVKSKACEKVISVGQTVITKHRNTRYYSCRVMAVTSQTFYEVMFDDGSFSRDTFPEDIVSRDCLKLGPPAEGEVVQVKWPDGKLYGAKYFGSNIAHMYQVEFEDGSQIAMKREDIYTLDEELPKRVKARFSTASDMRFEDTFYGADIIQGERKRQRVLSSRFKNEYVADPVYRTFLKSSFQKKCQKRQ

Vero = assay: cells; type: functional; settings: Chlorocebus sabaeus
Fatty acid synthase = Fatty acid synthase (Homo sapiens, UniProt P49327); assay: FAS thioesterase domain inhibitors, dose response, biochemical, kinetic fluorescence intensity (AID 624326); type: functional;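 note: rate of fluorescence rise from hydrolysis of a fluorogenic O-methyl fluorescein ester substrate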
[2] = inhibitors of Vif binding to APOBEC3G peptide, primary screen, biochemical, TR-FRET, GST-Vif 1-94, biotin-A3G peptide, dose response retest (AID 1117319); type: functional;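 note: TR-FRET signal of purified GST-Vif binding a biotinylated A3G peptide; inhibitors lower the FRET signal by blocking Vif and A3G binding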
[3] = growth suppression of beta-catenin-knockout colon cells, dose response, cell-based, HCT116, human colon tumor (AID 1045); type: functional;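 note: HCT116 colon tumor cells with beta catenin knocked out; cells exposed to compound for 60 hours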
[4] = biological target: Heat shock protein HSP 90-alpha (Homo sapiens, UniProt P07900); type: functional, organism-based

Fatty acid synthase, sequence (P49327 whole entry, the tested form may be a part): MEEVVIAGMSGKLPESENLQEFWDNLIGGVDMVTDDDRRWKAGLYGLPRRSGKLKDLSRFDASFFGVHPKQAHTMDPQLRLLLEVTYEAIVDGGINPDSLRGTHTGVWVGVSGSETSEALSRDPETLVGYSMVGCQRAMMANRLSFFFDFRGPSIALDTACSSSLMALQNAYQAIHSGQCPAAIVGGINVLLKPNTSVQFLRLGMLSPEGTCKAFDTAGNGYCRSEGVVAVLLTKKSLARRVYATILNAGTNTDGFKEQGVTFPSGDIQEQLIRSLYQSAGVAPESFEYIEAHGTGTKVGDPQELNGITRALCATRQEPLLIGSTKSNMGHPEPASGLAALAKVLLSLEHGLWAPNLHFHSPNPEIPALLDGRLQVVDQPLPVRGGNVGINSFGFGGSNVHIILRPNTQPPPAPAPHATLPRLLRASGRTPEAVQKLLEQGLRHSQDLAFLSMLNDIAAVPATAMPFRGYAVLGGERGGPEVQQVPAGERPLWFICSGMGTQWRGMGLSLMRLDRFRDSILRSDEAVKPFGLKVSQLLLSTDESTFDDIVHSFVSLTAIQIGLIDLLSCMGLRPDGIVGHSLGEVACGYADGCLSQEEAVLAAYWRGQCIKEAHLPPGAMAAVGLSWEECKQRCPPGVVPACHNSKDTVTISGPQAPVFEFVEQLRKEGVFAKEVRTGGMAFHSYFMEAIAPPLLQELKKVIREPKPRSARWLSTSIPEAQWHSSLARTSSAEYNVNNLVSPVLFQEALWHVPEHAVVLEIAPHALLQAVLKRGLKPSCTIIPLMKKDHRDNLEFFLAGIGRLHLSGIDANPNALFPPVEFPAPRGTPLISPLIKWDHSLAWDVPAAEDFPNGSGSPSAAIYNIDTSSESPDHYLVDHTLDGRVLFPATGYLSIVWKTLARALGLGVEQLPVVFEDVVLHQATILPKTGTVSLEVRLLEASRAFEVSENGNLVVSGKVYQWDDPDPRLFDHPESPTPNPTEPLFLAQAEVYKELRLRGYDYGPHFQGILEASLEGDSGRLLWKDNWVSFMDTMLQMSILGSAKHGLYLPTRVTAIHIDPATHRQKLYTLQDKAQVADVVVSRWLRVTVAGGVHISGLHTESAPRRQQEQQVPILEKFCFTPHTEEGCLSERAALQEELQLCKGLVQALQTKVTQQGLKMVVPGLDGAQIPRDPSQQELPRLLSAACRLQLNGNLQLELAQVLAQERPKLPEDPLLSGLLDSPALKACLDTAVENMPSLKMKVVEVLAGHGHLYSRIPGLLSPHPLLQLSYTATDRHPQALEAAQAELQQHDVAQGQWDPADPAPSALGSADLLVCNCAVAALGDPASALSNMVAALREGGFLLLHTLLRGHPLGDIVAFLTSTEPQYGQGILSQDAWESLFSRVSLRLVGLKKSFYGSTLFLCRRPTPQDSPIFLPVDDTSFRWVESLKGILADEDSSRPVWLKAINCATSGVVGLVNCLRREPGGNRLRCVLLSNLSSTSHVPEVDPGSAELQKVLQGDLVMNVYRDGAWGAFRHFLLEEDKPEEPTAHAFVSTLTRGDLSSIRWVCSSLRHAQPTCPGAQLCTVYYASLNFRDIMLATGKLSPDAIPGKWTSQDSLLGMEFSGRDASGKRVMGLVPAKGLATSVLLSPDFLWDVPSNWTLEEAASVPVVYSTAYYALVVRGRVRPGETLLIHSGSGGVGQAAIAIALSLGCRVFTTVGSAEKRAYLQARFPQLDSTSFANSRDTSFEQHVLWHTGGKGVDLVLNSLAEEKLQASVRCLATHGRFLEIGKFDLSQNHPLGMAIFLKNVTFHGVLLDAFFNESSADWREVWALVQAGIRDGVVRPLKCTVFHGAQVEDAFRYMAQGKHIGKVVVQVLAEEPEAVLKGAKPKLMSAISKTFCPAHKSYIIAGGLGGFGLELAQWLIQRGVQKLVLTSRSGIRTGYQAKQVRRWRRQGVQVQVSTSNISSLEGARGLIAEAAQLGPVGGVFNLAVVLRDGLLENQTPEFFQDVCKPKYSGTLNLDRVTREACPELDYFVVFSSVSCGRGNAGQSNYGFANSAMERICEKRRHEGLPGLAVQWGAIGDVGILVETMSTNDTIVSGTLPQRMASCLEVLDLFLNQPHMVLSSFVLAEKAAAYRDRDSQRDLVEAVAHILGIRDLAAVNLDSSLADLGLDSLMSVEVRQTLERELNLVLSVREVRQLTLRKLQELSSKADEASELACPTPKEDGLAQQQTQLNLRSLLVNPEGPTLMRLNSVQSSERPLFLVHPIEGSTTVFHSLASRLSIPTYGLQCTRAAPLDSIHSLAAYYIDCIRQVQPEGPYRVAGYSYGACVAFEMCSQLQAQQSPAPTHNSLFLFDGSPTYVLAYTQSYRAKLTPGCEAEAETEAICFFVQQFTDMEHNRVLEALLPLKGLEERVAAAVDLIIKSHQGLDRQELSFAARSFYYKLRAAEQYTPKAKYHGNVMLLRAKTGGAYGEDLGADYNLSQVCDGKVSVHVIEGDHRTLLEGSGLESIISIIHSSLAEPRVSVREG

O=C1c2ccccc2C(=O)C12OC2c1cccc2ccccc12 (stereo unspecified)
active: AC50 [1] 6.61 µM

O=[N+]([O-])c1ccc(Sc2nc3ccccc3o2)c([N+](=O)[O-])c1
active: CC50 (Vero) 4.12 µM | IC50 (Fatty acid synthase) 10.1 µM | IC50 [2] > 100 µM | EC50 [3] 5.57 µM | AC50 [4] 2.22 µM
